Read-outs that look alike come from different tables or passages of the source.
Assays:
rice seeds = experiment: Pre-sowing seed treatment, sowing qualities of rice seeds; format: in vivo; settings: for germination energy: control 71.4; for laboratory germination: control 95.2
Description: When evaluating the effectiveness of treatment of wheat, alfalfa, barley, rice, and sorghum seeds as fungicidal and bactericidal agents with preparation compounds at concentrations of 10, 20, and 40 mmol, their effect on the suppression of seed infection was evaluated.
[…] The sowing qualities were evaluated (germination energy for 3–4 days, laboratory germination for 7–8 days) according to GOST 12038-84 [60]. Sowing qualities of seeds were determined in wet chambers. According to the sample, 50 seeds were taken in 4-fold repetition.

[1] = system: A549 (adenocarcinomic human alveolar basal epithelial cells); experiment: Cell viability, MTT test; format: cell-based; settings: read-out: IC50 (concentration causing 50% inhibition of cell population growth)
Description: (§1) In this work, the cytotoxic potential of the water-soluble salts based on benzofuroxan was determined by the effect of compounds on the survival of the cell tumor origin cultures (SH-SY5Y, Hep2, A549, HeLa) using the MTT test. To understand how the synthesized compounds can influence the healthy microenvironment in the body, the effect of substances on the viability of a normal Hek 293 cell culture was additionally evaluated.
(§2) Human cell cultures of tumor origin—SH-SY5Y (neuroblastoma), HeLa (cervical tumor), Hep-2 (larynx carcinoma), A549 (adenocarcinomic human alveolar basal epithelial cells)—and normal cell line Hek 293 (human embryonic kidneys), provided by the Laboratory of Tumor Cell Genetics of the Scientific Research Institute of Carcinogenesis, N.N. Blokhin National Medical Research Center of Oncology, as well as the Institute of Cytology of the Russian Academy of Sciences, were grown in a nutrient medium DMEM (PanEco, Moscow, Russia) and MEM (PanEco, Moscow, Russia), containing fetal bovine serum (10% by volume) (ThermoFisher Scientific, Paisley, UK), Glutamax (2 mM) (Gibco, Scotland, UK), and penicillin-streptomycin (1% by volume) (PanEco, Moscow, Russia). The cultivation was carried out at 37 °C in a humidified CO2 atmosphere (5%).
(§3) Cell viability was determined by MTT test. Cells were seeded in a 96-well plate in the amount of 1 × 10^4 cells/200µLof complete nutrient medium and cultured at 37 °C in CO2 (5%). After 24 h of incubation, various concentrations of test compounds in the range from 0.1 to 100 μM, were added to the cell cultures, and then the cells were cultured under the same conditions for 24 and 72 h. For each concentration, the experiment was carried out in triplicate.
(§4) All compounds were dissolved in DMSO, then diluted with the medium to the required concentration. […] The DMSO was also added to the control wells in a volume of 1%. After the incubation time, MTT (3-(4,5-dimethylthiazol-2-yl)-2,5-diphenyltetrazolium bromide, 5 mg/mL) was added to each well and plates were additionally incubated for 2 h (until the characteristic color appeared).
(§5) Using a plate analyzer (Cytation3, BioTech Instruments Inc., Winooski, VT, USA), the optical density was determined at 530 nm. The concentration value causing 50% inhibition of cell population growth (IC50) was determined from dose-dependent curves.

HeLa (cervical tumor) = experiment: Cell viability, MTT test; format: cell-based; settings: Homo sapiens, read-out: IC50 (concentration causing 50% inhibition of cell population growth)
Description: as §1, §2, §3, §4, §5

Hep-2 (larynx carcinoma) = experiment: Cell viability, MTT test; format: cell-based; settings: Homo sapiens, read-out: IC50 (concentration causing 50% inhibition of cell population growth)
Description: as §1, §2, §3, §4, §5

[2] = Acute toxicity, single intraperitoneal administration; format: in vivo; settings: male, BDF1 [DBA2 × C57Bl6] hybrid, mouse, in vivo, ip, BDF1 mice, single intraperitoneal administration
Description: (§6) To determine LD50, a curve of increasing toxicity was built with increasing dose, based on which the following parameters were additionally determined: MTD, LD16, LD84 and LD100.
(§7) In the experiment, clinically healthy animals were used, which were kept in the same conditions with a 12-h light and free access to water and food. Each experimental group included six animals. […] Control animals received 0.9% NaCl solution. Animals were monitored continuously for 4 h on the first day after administration of the test compounds. […] Calculation of toxic doses was performed using probit analysis.

BDF1 mice = experiment: as above; format: in vivo
Description: as §6, §7

[3] = system: murine leukemia P388 in BDF1 mice; experiment: Antitumor activity in vivo, transplanted murine leukemia P388
Description: The study of the antitumor activity of compounds 4e and 4g was carried out using transplanted experimental murine tumor leukemia P388. In the experiment, concentrations from 1.25 to 10 mg/kg were used for 4e, and from 0.625 to 5 mg/kg for 4g. The concentrations used correspond to values from 1/8 MPD to MPD for the studied compounds.
Studies of antitumor activity were carried out on hybrid male mice BDF1 [DBA2×C57Bl6] weighing from 22 to 24 g. In the experiment, clinically healthy animals were used, which were kept in the same conditions with a 12-h light and free access to water and food. Each experimental group included six animals. Transplantation of mouse leukemia P388 was performed intraperitoneally with a concentration of 10^6 cells in 200μLof 0.9% NaCl solution per animal. Compounds 4e and 4g were dissolved in 0.9% NaCl solution and administered intraperitoneally once in the dose range 1.25–10 mg/kg and 0.625–5 mg/kg, respectively. The compounds were administered the next day after tumor cell transplantation. Control animals received 0.9% NaCl solution. The effectiveness of therapy was assessed by the increase in the average life span (ILS, %) of the animals.

[4] = single intraperitoneal administration, doses given in mg/kg, probit analysis

`CN(C)CCCNc1c([N+](=O)[O-])c(Cl)cc2c1no[n+]2[O-].Cl` [4g, 6-chloro-4-(3-(dimethylammonio)propylamino)-5-nitrobenzo[c][1,2,5]oxadiazole 1-oxide chloride] showed a germination energy (rice seeds; 10 mmol) of 38%, a laboratory germination (rice seeds; 10 mmol) of 47.6% and a germination energy (rice seeds; 20 mmol) of 71.4%. The laboratory germination (rice seeds; 20 mmol) was 100%, the “sowing qualities of seeds compared with control” value (rice seeds; 40 mmol) was “at the control level” and the germination energy (rice seeds; 40 mmol) was 76.1%. For the same compound, the laboratory germination (rice seeds; 40 mmol) was 95.2%, the IC50 ([1]; A549, 24 h) was 82 ± 1.54 µM and the IC50 ([1]; A549, 72 h) was 64.2 ± 2.12 µM. For the same compound, the IC50 (HeLa (cervical tumor); 24 h) was 97.8 ± 3.31 µM, the IC50 (HeLa (cervical tumor); 72 h) was 83.1 ± 4.29 µM and the IC50 (Hep-2 (larynx carcinoma); HEp-2, 24 h) was 70.3 ± 1.28 µM. The IC50 (Hep-2 (larynx carcinoma); HEp-2, 72 h) was 58 ± 2.9 µM, the MTD at 14 days ([2]; doses given in mg/kg) was 5 mg/kg and the LD50 at 14 days ([2]; probit analysis) was 13.8 ± 1.73 mg/kg. For the same compound, the “toxicity class from acute toxicity study” value (BDF1 mice; single i.p.) was “highly toxic”, the “Body Weight” value (BDF1 mice; single i.p. 5 mg/kg, 0 Day, control 21.55 ± 0.28) was 21.88 ± 0.45 g and the “Body Weight” value (BDF1 mice; single i.p. 5 mg/kg, 1 Day, control 21.43 ± 0.56) was 21.59 ± 0.55 g. For the same compound, the “Body Weight” value (BDF1 mice; single i.p. 5 mg/kg, 2 Days, control 21.67 ± 0.77) was 21.64 ± 0.71 g, the “Body Weight” value (BDF1 mice; single i.p. 5 mg/kg, 3 Days, control 21.99 ± 0.79) was 21.72 ± 0.79 g and the “Body Weight” value (BDF1 mice; single i.p. 5 mg/kg, 7 Days, control 22.80 ± 0.44) was 22.12 ± 0.75 g. The “Body Weight” value (BDF1 mice; single i.p. 5 mg/kg, 14 Days, control 23.96 ± 0.68) was 23.19 ± 1.21 g, the “Body Weight” value (BDF1 mice; single i.p. 10 mg/kg, 0 Day, control 21.55 ± 0.28) was 21.99 ± 0.21 g and the “Body Weight” value (BDF1 mice; single i.p. 10 mg/kg, 1 Day, control 21.43 ± 0.56) was 21.54 ± 0.41 g. The “Body Weight” value (BDF1 mice; single i.p. 10 mg/kg, 2 Days, control 21.67 ± 0.77) was 21.60 ± 0.52 g, the “Body Weight” value (BDF1 mice; single i.p. 10 mg/kg, 3 Days, control 21.99 ± 0.79) was 21.86 ± 0.66 g and the “Body Weight” value (BDF1 mice; single i.p. 10 mg/kg, 7 Days, control 22.80 ± 0.44) was 22.84 ± 1.06 g. The “Body Weight” value (BDF1 mice; single i.p. 10 mg/kg, 14 Days, control 23.96 ± 0.68) was 23.70 ± 1.12 g, the “Body Weight” value (BDF1 mice; single i.p. 15 mg/kg, 0 Day, control 21.55 ± 0.28) was 21.86 ± 0.57 g and the “Body Weight” value (BDF1 mice; single i.p. 15 mg/kg, 1 Day, control 21.43 ± 0.56) was 21.36 ± 2.51 g. For the same compound, the “Body Weight” value (BDF1 mice; single i.p. 15 mg/kg, 2 Days, control 21.67 ± 0.77) was 21.60 ± 2.43 g, the “Body Weight” value (BDF1 mice; single i.p. 15 mg/kg, 3 Days, control 21.99 ± 0.79) was 22.11 ± 3.03 g and the “Body Weight” value (BDF1 mice; single i.p. 15 mg/kg, 7 Days, control 22.80 ± 0.44) was 22.41 ± 2.74 g. For the same compound, the “Body Weight” value (BDF1 mice; single i.p. 15 mg/kg, 14 Days, control 23.96 ± 0.68) was 23.15 ± 2.14 g, the “Body Weight” value (BDF1 mice; single i.p. 20 mg/kg, 0 Day, control 21.55 ± 0.28) was 22.37 ± 0.80 g and the “Body Weight” value (BDF1 mice; single i.p. 20 mg/kg, 1 Day, control 21.43 ± 0.56) was 21.99 ± 3.09 g. For the same compound, the “Body Weight” value (BDF1 mice; single i.p. 20 mg/kg, 2 Days, control 21.67 ± 0.77) was 21.77 ± 3.79 g, the “Body Weight” value (BDF1 mice; single i.p. 20 mg/kg, 3 Days, control 21.99 ± 0.79) was 21.85 ± 3.18 g and the “Body Weight” value (BDF1 mice; single i.p. 20 mg/kg, 7 Days, control 22.80 ± 0.44) was 22.81 ± 3.89 g. For the same compound, the “Body Weight” value (BDF1 mice; single i.p. 20 mg/kg, 14 Days, control 23.96 ± 0.68) was 23.41 ± 3.01 g, the “Body Weight” value (BDF1 mice; single i.p. 25 mg/kg, 0 Day, control 21.55 ± 0.28) was 21.87 ± 0.74 g and the “time after administration at which death of animals began” value (BDF1 mice; single i.p., doses of 10–25 mg/kg) was 5 to 30 min. For the same compound, the LD100 (BDF1 mice; single intraperitoneal administration, doses given in mg/kg) was 25, the LD16 (BDF1 mice; [4]) was 9.4 and the LD84 (BDF1 mice; [4]) was 20.3. The “increase in the average lifespan (ILS)” value ([3]; single i.p. injection, 5 mg/kg) was 25% and the lifespan of animals ([3]; single i.p., doses from 1/8 MPD to MPD, control animals all die by day 11) was “up to 16 days”.

— paper PMC9739695, “Water-Soluble Salts Based on Benzofuroxan Derivatives—Synthesis and Biological Activity” (International Journal of Molecular Sciences, 2022)
